This note sets out measurements from US11884906B1, “4D-perfused tumoroid-on-a-chip platform for personalized cancer treatment applications” (University of South Florida, priority 2019, dated 2024).

One assay deals with HT29 tumoroid cells. Put plainly: Drug response of HT29 tumoroids on FiSS, CELLTITER-GLO viability, platform 10 (Chip) vs static system (Control). It counts as cell-based. The note with it: 48 hours drug treatment, microfluidic platform 10 (Chip) compared with static system (Control), FIGS. 14A-14C. The method, then:
(§1) FIG. 6 depicts the results of experiments performed on platform 10 described in detail above. In a first step, microfluidic channel layer 14 is cleaned and a scaffold to be grown on platform 10 is washed. Either 3000 cells of HT29, 2000 cells of HCT116, of 3500 cells of LLC are seeded in 100 μL of a culture media 30. After 48 hours, an additional 100 μl of the culture media 30 is added to inlet well 20, and an additional 50 μL of the culture media is added to culture well 21, with no fresh media added to outlet well 22. Approximately 48 hours after the additional media is added, a drug response test is performed. All the culture media 30 is removed from culture well 21, and 300 μL of a drug dissolved media is added to culture well 21 at the control plate. […]
(§2) A test, such as a CELLTITER-GLO® test, is performed 48 hours later to quantify the viable cells in the culture. […] Cell viability was determined using a CELLTITER-GLO® assay (Promega) according to the manufacturer's protocol. Luminescence was measured in a white well-plate in a Bio-Tek Synergy H4 plate reader (BioTek). An average luminescence value for each group was plotted as a percentage of the control group. […]
A general note: In ATP-based viability assays light output follows the ATP content of the culture.

The next assay deals with HCT116 tumoroid cells. Put plainly: Drug response of HCT116 tumoroids on FiSS, CELLTITER-GLO viability, platform 10 (Chip) vs static system (Control). Format: cell-based. Particulars: 48 hours drug treatment, microfluidic platform 10 (Chip) compared with static system (Control), FIGS. 15A-15C. On the procedure:
as §1, §2

Structures are written as SMILES.

Take `O=C1[O][Pt]2([NH][C@@H]3CCCC[C@H]3[NH]2)[O]C1=O` [oxaliplatin]: the “drug dose required on platform 10 to have the same IC50 as the static systems” value in the assay with HT29 tumoroid cells and in the assay on HCT116 tumoroid cells was “higher drug dose” throughout.

For the compound `O=c1[nH]cc(F)c(=O)[nH]1` [fluorouracil], the “drug dose required on platform 10 to have the same IC50 as the static systems” value with HT29 tumoroid cells is recorded as “higher drug dose”; in the assay on HCT116 tumoroid cells it was “lower drug dose”.
